These results are taken from patent US20250114363A1, “PHARMACEUTICAL COMPOSITION COMPRISING ALLOPURINOL, FEBUXOSTAT, OR A PHARMACEUTICALLY ACCEPTABLE SALT THEREOF FOR PREVENTING OR TREATING CARDIOVASCULAR DISEASE OF SUBJECT HAVING HIGH SERUM URIC ACID LEVEL” (Indream Healthcare Inc., priority 2022, published 2025).

Common to all, as to format: in vivo, human
For assay [1], the system named is patients with gout and a history of major cardiovascular diseases. The assay can be described thus: Clinical trial analysis: risk of major cardiovascular events by serum uric acid concentration (<6 vs >=6) per patient group. Conditions: for increase in risk of occurrence of major cardiovascular events (hazard ratio): serum uric acid maintained at or above 6 vs below 6. How it is done: (§1) A multicenter, randomized, double-blind non-inferiority trial was performed. The details of the clinical trial design have been published previously. An independent data and safety monitoring committee with access to unblinded data monitored the clinical trial. The statistical analysis for the data and the safety monitoring committee was performed by an independent statistical group (WebbWrites).
(§2) The patients were regarded as having a history of major cardiovascular diseases, if they had myocardial infarction, hospitalization for unstable angina, stroke, hospitalization for transient ischemic attack, peripheral vascular disease, or diabetes mellitus symptoms. All participants provided a prior informed consent form.
The patients were randomly assigned so that they received febuxostat or allopurinol administered once a day in a double-blind manner. The randomization was stratified according to the estimated creatinine clearance at baseline (patient group having an estimated creatinine clearance ≥60 ml per minute vs patient group having an estimated creatinine clearance ≥30 and <60 ml per minute).
The dose of allopurinol was modified according to a kidney function. The patients with the estimated creatinine clearance 60 ml or more per minute i) initially received allopurinol at a dose of 300 mg once a day, and the dose was increased in 100 mg increments monthly until the patient had the serum uric acid concentration of less than 6.0 mg per deciliter or the dosage of allopurinol was 600 mg once a day. The patient having the estimated creatinine clearance of 30 ml or more and less than 60 ml per minute initially received 200 mg of allopurinol, and then the dose was increased in 100 mg increments until the patient either had the serum uric acid concentration of less than 6.0 mg per deciliter or was receiving the allopurinol dose of 400 mg once daily.
The dose of febuxostat was not modified according to the kidney function. The patients who were randomly assigned to receive febuxostat initially received 40 mg once a daily, and continued to receive the same dosage if the serum uric acid concentration was less than 6.0 mg per deciliter after 2 weeks of the treatment. If the serum uric acid concentration was higher than 6.0 mg per deciliter at 2nd week visit, the dose of febuxostat was increased to 80 mg once daily for the remainder of the trial.

Assay [2] shares this test system. Put plainly: Clinical trial: rate of gout flare. Conditions: overall. How it is done: as §1, §2
All patients received prophylaxis for the first 6 months of the randomly assigned treatment.

The test system is the same in assay [3]. Put plainly: Clinical trial: proportion of patients reaching serum uric acid concentration targets. Particulars: febuxostat group vs allopurinol group. How it is done:
A multicenter, randomized, double-blind non-inferiority trial was performed. The details of the clinical trial design have been published previously. An independent data and safety monitoring committee with access to unblinded data monitored the clinical trial. The statistical analysis for the data and the safety monitoring committee was performed by an independent statistical group (WebbWrites). […] The patients were regarded as having a history of major cardiovascular diseases, if they had myocardial infarction, hospitalization for unstable angina, stroke, hospitalization for transient ischemic attack, peripheral vascular disease, or diabetes mellitus symptoms. All participants provided a prior informed consent form. The dose of allopurinol was modified according to a kidney function. […] The dose of febuxostat was not modified according to the kidney function. The patients who were randomly assigned to receive febuxostat initially received 40 mg once a daily, and continued to receive the same dosage if the serum uric acid concentration was less than 6.0 mg per deciliter after 2 weeks of the treatment. […] During the period, the administration of a double-blind and double-dummy trial medications was guided by an interactive voice-response system which was a procedure to prevent unblinding for the patients whose dose was not adjusted. After completing dose adjustment, the urate level was concealed from the investigators, and the treatment was managed throughout the trial using the interactive voice-response system. […] The patients with reduced kidney function or, the patients aged 65 years or older at randomization were visited at 9 and 15 months for monitoring the serum chemical profile. If the patient agreed to be monitored, but would not return for study visit, telephone contact was made, but such method was not preferred or recommended.

Regarding `O=c1ncnc2[nH][nH]cc1-2` [allopurinol], the “effect on cardiovascular disease when serum uric acid concentration is maintained below 6” value in assay [1] (allopurinol: aged 65 years or older or BMI 30 kg/m^2 or less) was “effectively prevented or treated”. Further, the figures for the “increase in risk of occurrence of major cardiovascular events (hazard ratio)” value in assay [1] (patient group aged 65 years or older) and in assay [1] (patient group with BMI of 30 kg/m^2 or less) were “about 1.68 times” and “about 1.78 times”, respectively. Also, the “rate of gout flare” value in assay [2] is reported as 0.63 per patient-year.

Regarding `Cc1nc(-c2ccc(OCC(C)C)c(C#N)c2)sc1C(=O)O` [febuxostat], the “effect on cardiovascular disease when serum uric acid concentration is maintained below 6” value in assay [1] (febuxostat: aged 65 or older, glucose 126 mg/dl or more, LDL-cholesterol 100 mg/dl or less, DBP 80 or lower, or stroke or peripheral vascular disease history) is recorded as “prevented or treated”. Besides, the “proportion of patients with maintenance of serum uric acid concentration at less than 6.0 mg per deciliter” value in assay [3] (after 2nd week, at most times, difference not large) was “higher proportion”. Besides, the “proportion of patients with serum uric acid concentration of less than 6.0 mg per deciliter” value in assay [3] (at the 2nd week) was “higher”. Besides, the “proportion of patients with serum uric acid concentration of less than 5.0 mg per deciliter” value in assay [3] (entire trial) is reported as “larger proportion”. In assay [2], the “rate of gout flare” value is given as 0.68 per patient-year.
